For two molecules, EC50 results are on record in patent US20110053995A1, “BENZENESULFONANILIDE COMPOUND INHIBITORS OF UREA TRANSPORTERS” (THE REGENTS OF THE UNIVERSITY OF CALIFORNIA, priority 2006, published 2011).

As usually defined, the EC50 is the concentration at which the effect is half-maximal.

The target of one assay is T1, rat UT-A1 (Rattus norvegicus, UniProt Q62668).
T1 construct: expressed in transfected cells; host or cells: MDCK cells (gift of Dr. Jeffrey Sands, Emory University)
T1 sequence (Q62668 1-929): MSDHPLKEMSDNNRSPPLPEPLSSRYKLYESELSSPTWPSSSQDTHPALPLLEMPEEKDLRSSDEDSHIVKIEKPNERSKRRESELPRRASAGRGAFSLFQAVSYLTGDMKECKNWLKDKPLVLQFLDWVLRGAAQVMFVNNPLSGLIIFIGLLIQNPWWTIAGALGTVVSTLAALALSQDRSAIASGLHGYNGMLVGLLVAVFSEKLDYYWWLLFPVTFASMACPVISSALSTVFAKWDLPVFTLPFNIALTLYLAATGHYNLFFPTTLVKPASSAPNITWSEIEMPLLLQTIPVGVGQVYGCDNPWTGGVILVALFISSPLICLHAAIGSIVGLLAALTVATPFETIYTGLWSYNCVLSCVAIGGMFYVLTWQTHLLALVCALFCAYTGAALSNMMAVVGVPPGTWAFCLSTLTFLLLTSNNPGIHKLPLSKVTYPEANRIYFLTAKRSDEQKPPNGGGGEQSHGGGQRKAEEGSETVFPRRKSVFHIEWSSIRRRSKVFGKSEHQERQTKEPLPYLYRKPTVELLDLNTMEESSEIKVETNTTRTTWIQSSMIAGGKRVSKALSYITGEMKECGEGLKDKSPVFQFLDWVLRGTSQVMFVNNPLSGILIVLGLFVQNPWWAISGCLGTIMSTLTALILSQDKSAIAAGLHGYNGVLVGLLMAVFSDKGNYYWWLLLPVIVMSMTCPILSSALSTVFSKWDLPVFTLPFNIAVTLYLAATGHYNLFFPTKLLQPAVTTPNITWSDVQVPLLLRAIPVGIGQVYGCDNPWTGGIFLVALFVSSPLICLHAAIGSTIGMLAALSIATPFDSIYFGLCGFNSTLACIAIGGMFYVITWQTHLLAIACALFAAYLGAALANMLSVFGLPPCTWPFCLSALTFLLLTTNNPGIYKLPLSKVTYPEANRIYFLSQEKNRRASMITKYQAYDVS
As to the kind of experiment: UT-A1-facilitated urea flux across MDCK-UT-A1 cell layers. It is filed as cell-based. The following applies: forskolin-stimulated MDCK-UT-A1 cells, 15-min time point; read-out: EC50 against rat UT-A1. As for the experimental part:
Concentration-inhibition studies were performed to study the effect of the active mouse UT-B inhibitors on urea transport by UT-A. The amino acid sequences of UT-B and UT-A urea transporter isoforms share significant similarity. The cells used in these studies were MDCK cells that expressed rat UT-A1. MDCK-UT-A1-expressing cells were grown on collagen-coated porous filters until they were electrically tight, at which point 15 mM urea was introduced into buffer bathing the basolateral cell surface.
MDCK cells stably transfected with rat UT-A1 (MDCK-UT-A1) (Fröhlich et al., Am J Physiol. in press; Fröhlich et al., Am. J. Physiol. Cell Physiol. 286:C1264-70 (2004). Epub on Jan. 28, 2004) were generously provided by Dr. Jeffrey Sands (Emory University School of Medicine, Atlanta, Ga.). Cells were grown in Dulbecco's Modified Eagle Medium (DMEM) with bicarbonate and supplemented with 10% fetal bovine serum (FBS), 25 mM HEPES buffer, penicillin G (100 U/mL), streptomycin (100 μg/mL) and hygromycin (500 μg/mL). For determining urea flux, cells were grown on 12-mm collagen-coated TRANSWELL inserts (0.4 μm pore size; Costar) as described (Fröhlich et al., Am J Physiol. in press; Fröhlich et al., 2004, supra). The TRANSWELL inserts were incubated in hygromycin-free medium for 1 hr in a 5% CO2 tissue culture incubator (37° C.), and then 2×10^5 cells/cm^2 were loaded onto each insert. Cells were used after culturing the cells for 4 days in hygromycin-free medium, at which time they formed tight monolayers (transepithelial resistance 500-600 Ω·cm^2).
UT-A1-facilitated urea flux in the basolateral-to-apical direction across unstimulated and forskolin-stimulated MDCK-UT-A1 cell layers was measured in response to a 15-mM urea gradient. Experiments were carried out in 12-well plates in which PBS, containing either DMSO vehicle or forskolin, with or without UT-B inhibitor, added to both the apical-facing (0.2 mL) and basal-facing (1 mL) surfaces of cells on the porous filters. Cultures were incubated in the absence of urea for 30 min at 37° C. Then, the basal-facing solution was replaced with PBS (containing same components) with 15 mM urea. Five μL samples of apical fluid were collected at specified times during incubation at 37° C., and urea concentration was determined using a commercial kit based on chromogenic urea complexation at 520-nm wavelength (Quantichrom™ Urea Assay Kit, BioAssay Systems, Hayward, Calif.). Forskolin (10 μM), with or without UT-B transport inhibitors, was added from 1000× DMSO stock solutions (0.2% final DMSO content). Inhibition of UT-A1-mediated transport was defined as % inhibition=100% (Aforsk−Atest)/(Aforsk−Aphlor). Aforsk, and Aphlor were averaged absorbance values (at 520 nm) for cultures treated with forskolin and forskolin+phloretin, respectively, and Atest were values from cultures treated with forskolin+test compound.

The target of the next assay is T2, UT-B (Homo sapiens, UniProt Q13336).
T2 construct: a red blood cell (i.e., erythrocyte), which endogenously expresses the urea transporter UT-B; endogenous in cells; host or cells: human red blood cells (whole venous blood, single donor)
T2 sequence (Q13336 1-389): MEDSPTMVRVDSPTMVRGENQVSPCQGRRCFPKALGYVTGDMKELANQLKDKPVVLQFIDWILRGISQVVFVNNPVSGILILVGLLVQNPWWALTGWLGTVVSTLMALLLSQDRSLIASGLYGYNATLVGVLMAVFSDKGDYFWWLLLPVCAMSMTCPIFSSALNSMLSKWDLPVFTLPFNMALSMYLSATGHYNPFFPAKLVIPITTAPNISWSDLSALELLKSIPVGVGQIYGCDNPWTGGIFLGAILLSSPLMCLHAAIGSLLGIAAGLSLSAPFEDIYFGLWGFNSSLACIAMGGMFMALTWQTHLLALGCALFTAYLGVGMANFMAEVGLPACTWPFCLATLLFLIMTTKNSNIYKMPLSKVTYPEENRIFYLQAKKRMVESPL
As to the kind of experiment: RBC lysis assay, human RBCs. The following applies: lysis assay, FIG. 5B, read-out: apparent EC50. Format: cell-based. From the text: Vigorous mixing was achieved by repeated pipetting.

Consider `Cc1ccc(Nc2nnc(-c3ccc(C(N)=O)cc3)c3ccccc23)cc1` [ureainh-302], for which the EC50 was around 15000 nM on rat UT-A1 and 100 nM on UT-B.
The like results for `NC(=O)CSc1oc(-c2ccccc2)nc1S(=O)(=O)c1ccc(Br)cc1` [ureainh-101] were, in that order, around 1200 nM and 30 nM.
